Assay results taken from patent publication US8039499B2, “Ester compound and its use” (Sumitomo Chemical Company, Limited, priority 2006, dated 2011).

How the values were obtained:
[1] = test system: German cockroach (Blattella germanica); experiment: Test Example 3: German cockroach knock down, spray in test chamber; type: in vivo; settings: active ingredient concentration 0.00625%, 1.5 ml sprayed, counted 1 minutes after spraying, repeated twice
Procedure: The formulation of the sample compound obtained in Formulation Example 7 was diluted with dichloromethane/deodorized kerosene=1/9 mixed solution so that the active ingredient concentration was 0.00625%, to prepare a test medicinal solution.
A container (8.75 cm in diameter, 7.5 cm in height, bottom covered 16-mesh iron net and inside wall painted butter for preventing tested pill bugs to escape) having 10 German cockroach (5 males and 5 females, Blattella germanica) therein was set on the bottom of a test chamber (46 cm×46 cm, height: 70 cm). From a height of 60 cm above the upper surface of the container, 1.5 ml of the test solution was sprayed using a spray gun at a spraying pressure of 0.4 kg/cm^2. After 30 seconds, the German cockroach were taken out and put into a clean plastic cup having 8.2 cm in diameter. The lid having holes was covered on the cup. 1 minutes after spraying, the number of knocked-down insects was counted (repeated twice).

adult houseflies = experiment: Test Example 2: housefly knock down, spray in cubic glass chamber; type: in vivo; settings: active ingredient concentration 0.00625%, 0.7 ml sprayed, counted 10 minutes after spraying, repeated twice
Procedure: The formulation of the sample compound obtained in Formulation Example 7 was diluted with dichloromethane/deodorized kerosene=1/9 mixed solution so that the active ingredient concentration was 0.00625%, to prepare a test solution.
Ten adult houseflies (4 or 5 males and 4 or 5 females each) were left in a cubic glass chamber (70 cm at each side), and 0.7 ml of the test solution was sprayed through a small window at the side of the chamber using a spray gun at a spraying pressure of 0.9 kg/cm^2. 10 minutes after spraying, the number of knocked-down insects was counted (repeated twice).

## C#CCc1ccc(COC(=O)[C@@H]2[C@@H](/C=C(\C)C=NOC)C2(C)C)o1 [comparative compound (B), 5-(2-propynyl)furan-2-ylmethyl (1R)-trans-3-[(E)-3-methoxyimino-2-methyl-1-propenyl]-2,2-dimethylcyclopropanecarboxylate]
[1]
  knock down ratio of sample insects: 0%

## C#CCN1CC(=O)N(COC(=O)[C@@H]2[C@@H](/C=C(\C)C=NOC)C2(C)C)C1=O [present compound (1), 2,5-dioxo-3-(2-propynyl)imidazolidin-1-ylmethyl (1R)-trans-3-[(E)-3-methoxyimino-2-methyl-1-propenyl]-2,2-dimethylcyclopropanecarboxylate]
Adult houseflies
  knock down ratio of sample insects: 100%
[1]
  knock down ratio of sample insects: 100%

## C#CCN1CC(=O)N(COC(=O)[C@@H]2[C@@H](C=C(C)C)C2(C)C)C1=O [comparative compound (A), 2,5-dioxo-3-(2-propynyl)imidazolidine-1-ylmethyl (1R)-trans-2,2-dimethyl-3-(2-methyl-1-propenyl)cyclopropane carboxylate]
Adult houseflies
  knock down ratio of sample insects: 42%
